{"source": "patent US10227344B2", "about": "“CK2 inhibitors, compositions and methods thereof” (Polaris Pharmaceuticals, Inc., priority 2016, dated 2019)", "assay_type_in_all_cases": "cell-based", "key": {"MDA-MB-157": {"system": "MDA-MB-157", "assay": "Cancer cell panel, cell viability (resazurin): Breast, MDA-MB-157", "conditions": "MDA-MB-157 (Breast), 72 hours; labelled drug combined with Example 3"}, "H1975": {"system": "H1975", "assay": "Cancer cell panel, cell viability (resazurin): NSCLC, H1975", "conditions": "72 hours, labelled drug combined with Example 3", "procedure": "(§1) Cells were plated in 96-well plates and treated for 72 hours with a serially diluted CK2 inhibitor or anti-cancer drug or their combination. The suspension cell lines were treated right after plating, while the adherent cells were allowed to attach overnight prior to the start of the treatment.\n(§2) Cell viability was determined by adding resazurin to cell cultures and measuring fluorescence with a plate reader. Relative cell viability was calculated by dividing the cell viability signal from a test sample by that of a non-treated control. […] Bliss Independence and Highest Single Agent models were used to determine if there is synergy, additivity or antagonism between the CK2 inhibitor and an anti-cancer drug."}, "MDA-MB-453": {"system": "MDA-MB-453", "assay": "Cancer cell panel, cell viability (resazurin): Breast, MDA-MB-453", "conditions": "MDA-MB-453 (Breast), 72 hours; labelled drug combined with Example 3"}, "HT29": {"system": "HT29", "assay": "Cancer cell panel, cell viability (resazurin): Colon, HT29", "conditions": "72 hours, labelled drug combined with Example 3"}, "OVCAR-3": {"system": "OVCAR-3", "assay": "Cancer cell panel, cell viability (resazurin): Ovarian, OVCAR-3", "conditions": "OVCAR-3 (Ovarian), 72 hours; labelled drug combined with Example 3", "procedure": "as §1, §2"}, "BxPC3": {"system": "BxPC3", "assay": "Cancer cell panel, cell viability (resazurin): Pancreatic, BxPC3", "conditions": "72 hours, labelled drug combined with Example 3", "procedure": "as §1, §2"}, "DLD-1": {"system": "DLD-1", "assay": "Cancer cell panel, cell viability (resazurin): Colon, DLD-1", "conditions": "DLD-1 (Colon), 72 hours; labelled drug combined with Example 3"}, "K562": {"system": "K562", "assay": "Cancer cell panel, cell viability (resazurin): Leukemia, K562", "conditions": "72 hours, labelled drug combined with Example 3", "procedure": "as §1, §2"}, "ZR-75-1": {"system": "ZR-75-1", "assay": "Cancer cell panel, cell viability (resazurin): Breast, ZR-75-1", "conditions": "ZR-75-1 (Breast), 72 hours; labelled drug combined with Example 3"}, "T47D": {"system": "T47D", "assay": "Cancer cell panel, cell viability (resazurin): Breast, T47D", "conditions": "72 hours, labelled drug combined with Example 3", "procedure": "as §1, §2"}, "H23": {"system": "H23", "assay": "Cancer cell panel, cell viability (resazurin): NSCLC, H23", "conditions": "72 hours, labelled drug combined with Example 3"}, "H460": {"system": "H460", "assay": "Cancer cell panel, cell viability (resazurin): NSCLC, H460", "conditions": "72 hours, labelled drug combined with Example 3"}, "BT-474": {"system": "BT-474", "assay": "Cancer cell panel, cell viability (resazurin): Breast, BT-474", "conditions": "BT-474 (Breast), 72 hours; labelled drug combined with Example 3"}, "WM-115": {"system": "WM-115", "assay": "Cancer cell panel, cell viability (resazurin): Melanoma, WM-115", "conditions": "WM-115 (Melanoma), 72 hours; labelled drug combined with Example 3"}, "H1299": {"system": "H1299", "assay": "Cancer cell panel, cell viability (resazurin): NSCLC, H1299", "conditions": "72 hours, labelled drug combined with Example 3"}, "Daudi": {"system": "Daudi", "assay": "Cancer cell panel, cell viability (resazurin): Burkitt's Lymphoma, Daudi", "conditions": "72 hours, labelled drug combined with Example 3", "procedure": "as §1, §2"}, "SK-MEL-24": {"system": "SK-MEL-24", "assay": "Cancer cell panel, cell viability (resazurin): Melanoma, SK-MEL-24", "conditions": "SK-MEL-24 (Melanoma), 72 hours; labelled drug combined with Example 3", "procedure": "as §1, §2"}, "EOL-1": {"system": "EOL-1", "assay": "Cancer cell panel, cell viability (resazurin): Leukemia, EOL-1", "conditions": "EOL-1 (Leukemia), 72 hours; labelled drug combined with Example 3"}, "A375": {"system": "A375", "assay": "Cancer cell panel, cell viability (resazurin): Melanoma, A375", "conditions": "72 hours, labelled drug combined with Example 3"}, "BT-20": {"system": "BT-20", "assay": "Cancer cell panel, cell viability (resazurin): Breast, BT-20", "conditions": "BT-20 (Breast), 72 hours; labelled drug combined with Example 3", "procedure": "as §1, §2"}, "LoVo": {"system": "LoVo", "assay": "Cancer cell panel, cell viability (resazurin): Colon, LoVo", "conditions": "72 hours, labelled drug combined with Example 3"}, "SkBr-3": {"system": "SkBr-3", "assay": "Cancer cell panel, cell viability (resazurin): Breast, SkBr-3", "conditions": "SkBr-3 (Breast), 72 hours; labelled drug combined with Example 3"}, "Caov-3": {"system": "Caov-3", "assay": "Cancer cell panel, cell viability (resazurin): Ovarian, Caov-3", "conditions": "Caov-3 (Ovarian), 72 hours; labelled drug combined with Example 3", "procedure": "as §1, §2"}, "MDA-MB-231": {"system": "MDA-MB-231", "assay": "Cancer cell panel, cell viability (resazurin): Breast, MDA-MB-231", "conditions": "MDA-MB-231 (Breast), 72 hours; labelled drug combined with Example 3", "procedure": "as §1, §2"}, "HCT116": {"system": "HCT116", "assay": "Cancer cell panel, cell viability (resazurin): Colon, HCT116", "conditions": "72 hours, labelled drug combined with Example 3"}, "Raji": {"system": "Raji", "assay": "Cancer cell panel, cell viability (resazurin): Burkitt's Lymphoma, Raji", "conditions": "72 hours, labelled drug combined with Example 3"}, "A549": {"system": "A549", "assay": "Cancer cell panel, cell viability (resazurin): NSCLC, A549", "conditions": "72 hours, labelled drug combined with Example 3", "procedure": "as §1, §2"}, "HL60": {"system": "HL60", "assay": "Cancer cell panel, cell viability (resazurin): Leukemia, HL60", "conditions": "72 hours, labelled drug combined with Example 3"}, "SK-MEL-3": {"system": "SK-MEL-3", "assay": "Cancer cell panel, cell viability (resazurin): Melanoma, SK-MEL-3", "conditions": "SK-MEL-3 (Melanoma), 72 hours; labelled drug combined with Example 3"}, "RPMI8226": {"system": "RPMI8226", "assay": "Cancer cell panel, cell viability (resazurin): multiple myeloma, RPMI8226", "conditions": "72 hours, labelled drug combined with Example 3", "procedure": "as §1, §2"}, "SKOV-3": {"system": "SKOV-3", "assay": "Cancer cell panel, cell viability (resazurin): Ovarian, SKOV-3", "conditions": "SKOV-3 (Ovarian), 72 hours; labelled drug combined with Example 3", "procedure": "as §1, §2"}, "Colo205": {"system": "Colo205", "assay": "Cancer cell panel, cell viability (resazurin): Colon, Colo205", "conditions": "72 hours, labelled drug combined with Example 3"}, "H2122": {"system": "H2122", "assay": "Cancer cell panel, cell viability (resazurin): NSCLC, H2122", "conditions": "72 hours, labelled drug combined with Example 3"}}}
{"smiles": "CC(=O)O[C@H]1C(=O)[C@@]2(C)[C@H]([C@H](OC(=O)c3ccccc3)[C@]3(O)C[C@H](OC(=O)[C@H](O)[C@@H](NC(=O)c4ccccc4)c4ccccc4)C(C)=C1C3(C)C)[C@]1(OC(C)=O)CO[C@@H]1C[C@@H]2O", "note": "[Paclitaxel, paclitaxel]", "values": [{"measurement": "synergy, additivity or antagonism of the combination of Example 3 with the anti-cancer drug", "setting": "MDA-MB-157", "value": "+ (Additive relative to each agent alone (CI = 0.9-1 by Bliss Independence Model and <0.9 by Highest Single Agent Model))"}, {"measurement": "synergy, additivity or antagonism of the combination of Example 3 with the anti-cancer drug", "setting": "H1975", "value": "+ (Additive relative to each agent alone (CI = 0.9-1 by Bliss Independence Model and <0.9 by Highest Single Agent Model))"}, {"measurement": "synergy, additivity or antagonism of the combination of Example 3 with the anti-cancer drug", "setting": "MDA-MB-453", "value": "+ (Additive relative to each agent alone (CI = 0.9-1 by Bliss Independence Model and <0.9 by Highest Single Agent Model))"}, {"measurement": "synergy, additivity or antagonism of the combination of Example 3 with the anti-cancer drug", "setting": "HT29", "value": "+ (Additive relative to each agent alone (CI = 0.9-1 by Bliss Independence Model and <0.9 by Highest Single Agent Model))"}, {"measurement": "synergy, additivity or antagonism of the combination of Example 3 with the anti-cancer drug", "setting": "OVCAR-3", "value": "+ (Additive relative to each agent alone (CI = 0.9-1 by Bliss Independence Model and <0.9 by Highest Single Agent Model))"}, {"measurement": "synergy, additivity or antagonism of the combination of Example 3 with the anti-cancer drug", "setting": "BxPC3", "value": "+ + (Slight synergy relative to each agent alone (CI = 0.75-0.9 by Bliss Independence Model))"}, {"measurement": "synergy, additivity or antagonism of the combination of Example 3 with the anti-cancer drug", "setting": "DLD-1", "value": "+ + + (Synergy relative to each agent alone (CI = 0.4-0.74 by Bliss Independence Model))"}, {"measurement": "synergy, additivity or antagonism of the combination of Example 3 with the anti-cancer drug", "setting": "K562", "value": "+ (Additive relative to each agent alone (CI = 0.9-1 by Bliss Independence Model and <0.9 by Highest Single Agent Model))"}, {"measurement": "synergy, additivity or antagonism of the combination of Example 3 with the anti-cancer drug", "setting": "ZR-75-1", "value": "+ (Additive relative to each agent alone (CI = 0.9-1 by Bliss Independence Model and <0.9 by Highest Single Agent Model))"}, {"measurement": "synergy, additivity or antagonism of the combination of Example 3 with the anti-cancer drug", "setting": "T47D", "value": "+ (Additive relative to each agent alone (CI = 0.9-1 by Bliss Independence Model and <0.9 by Highest Single Agent Model))"}, {"measurement": "synergy, additivity or antagonism of the combination of Example 3 with the anti-cancer drug", "setting": "H23", "value": "+ + (Slight synergy relative to each agent alone (CI = 0.75-0.9 by Bliss Independence Model))"}, {"measurement": "synergy, additivity or antagonism of the combination of Example 3 with the anti-cancer drug", "setting": "H460", "value": "+ + (Slight synergy relative to each agent alone (CI = 0.75-0.9 by Bliss Independence Model))"}, {"measurement": "synergy, additivity or antagonism of the combination of Example 3 with the anti-cancer drug", "setting": "BT-474", "value": "+ (Additive relative to each agent alone (CI = 0.9-1 by Bliss Independence Model and <0.9 by Highest Single Agent Model))"}, {"measurement": "synergy, additivity or antagonism of the combination of Example 3 with the anti-cancer drug", "setting": "WM-115", "value": "+ (Additive relative to each agent alone (CI = 0.9-1 by Bliss Independence Model and <0.9 by Highest Single Agent Model))"}, {"measurement": "synergy, additivity or antagonism of the combination of Example 3 with the anti-cancer drug", "setting": "H1299", "value": "+ (Additive relative to each agent alone (CI = 0.9-1 by Bliss Independence Model and <0.9 by Highest Single Agent Model))"}, {"measurement": "synergy, additivity or antagonism of the combination of Example 3 with the anti-cancer drug", "setting": "Daudi", "value": "+ (Additive relative to each agent alone (CI = 0.9-1 by Bliss Independence Model and <0.9 by Highest Single Agent Model))"}, {"measurement": "synergy, additivity or antagonism of the combination of Example 3 with the anti-cancer drug", "setting": "SK-MEL-24", "value": "+ (Additive relative to each agent alone (CI = 0.9-1 by Bliss Independence Model and <0.9 by Highest Single Agent Model))"}, {"measurement": "synergy, additivity or antagonism of the combination of Example 3 with the anti-cancer drug", "setting": "EOL-1", "value": "+ (Additive relative to each agent alone (CI = 0.9-1 by Bliss Independence Model and <0.9 by Highest Single Agent Model))"}, {"measurement": "synergy, additivity or antagonism of the combination of Example 3 with the anti-cancer drug", "setting": "A375", "value": "+ (Additive relative to each agent alone (CI = 0.9-1 by Bliss Independence Model and <0.9 by Highest Single Agent Model))"}, {"measurement": "synergy, additivity or antagonism of the combination of Example 3 with the anti-cancer drug", "setting": "BT-20", "value": "+ + (Slight synergy relative to each agent alone (CI = 0.75-0.9 by Bliss Independence Model))"}, {"measurement": "synergy, additivity or antagonism of the combination of Example 3 with the anti-cancer drug", "setting": "LoVo", "value": "+ (Additive relative to each agent alone (CI = 0.9-1 by Bliss Independence Model and <0.9 by Highest Single Agent Model))"}, {"measurement": "synergy, additivity or antagonism of the combination of Example 3 with the anti-cancer drug", "setting": "SkBr-3", "value": "+ (Additive relative to each agent alone (CI = 0.9-1 by Bliss Independence Model and <0.9 by Highest Single Agent Model))"}, {"measurement": "synergy, additivity or antagonism of the combination of Example 3 with the anti-cancer drug", "setting": "Caov-3", "value": "+ (Additive relative to each agent alone (CI = 0.9-1 by Bliss Independence Model and <0.9 by Highest Single Agent Model))"}, {"measurement": "synergy, additivity or antagonism of the combination of Example 3 with the anti-cancer drug", "setting": "MDA-MB-231", "value": "+ (Additive relative to each agent alone (CI = 0.9-1 by Bliss Independence Model and <0.9 by Highest Single Agent Model))"}, {"measurement": "synergy, additivity or antagonism of the combination of Example 3 with the anti-cancer drug", "setting": "HCT116", "value": "+ (Additive relative to each agent alone (CI = 0.9-1 by Bliss Independence Model and <0.9 by Highest Single Agent Model))"}, {"measurement": "synergy, additivity or antagonism of the combination of Example 3 with the anti-cancer drug", "setting": "Raji", "value": "+ + (Slight synergy relative to each agent alone (CI = 0.75-0.9 by Bliss Independence Model))"}, {"measurement": "synergy, additivity or antagonism of the combination of Example 3 with the anti-cancer drug", "setting": "A549", "value": "+ (Additive relative to each agent alone (CI = 0.9-1 by Bliss Independence Model and <0.9 by Highest Single Agent Model))"}, {"measurement": "synergy, additivity or antagonism of the combination of Example 3 with the anti-cancer drug", "setting": "HL60", "value": "+ + (Slight synergy relative to each agent alone (CI = 0.75-0.9 by Bliss Independence Model))"}, {"measurement": "synergy, additivity or antagonism of the combination of Example 3 with the anti-cancer drug", "setting": "SK-MEL-3", "value": "+ (Additive relative to each agent alone (CI = 0.9-1 by Bliss Independence Model and <0.9 by Highest Single Agent Model))"}, {"measurement": "synergy, additivity or antagonism of the combination of Example 3 with the anti-cancer drug", "setting": "RPMI8226", "value": "+ (Additive relative to each agent alone (CI = 0.9-1 by Bliss Independence Model and <0.9 by Highest Single Agent Model))"}, {"measurement": "synergy, additivity or antagonism of the combination of Example 3 with the anti-cancer drug", "setting": "SKOV-3", "value": "+ (Additive relative to each agent alone (CI = 0.9-1 by Bliss Independence Model and <0.9 by Highest Single Agent Model))"}, {"measurement": "synergy, additivity or antagonism of the combination of Example 3 with the anti-cancer drug", "setting": "Colo205", "value": "+ + + (Synergy relative to each agent alone (CI = 0.4-0.74 by Bliss Independence Model))"}, {"measurement": "synergy, additivity or antagonism of the combination of Example 3 with the anti-cancer drug", "setting": "H2122", "value": "+ (Additive relative to each agent alone (CI = 0.9-1 by Bliss Independence Model and <0.9 by Highest Single Agent Model))"}]}
